Assay results taken from publication PMC10268594 (2023).
One block for each compound: values may come before it.

How the values were obtained:
Assay in all cases: single-molecule MspA-M2 nanopore kinetics
[1] = test system: Theophylline-binding aptamer (RNA, aptamer) AGUGAUACCAGCAUCGUCUUGAUGCCCUUGGCAGCACU; settings: 1 M KCl; +180 mV, aptamer cis, 25 µM theophylline trans
[2] = test system: Serotonin-binding aptamer (DNA, aptamer) CGACTGGTAGGCAGATAGGGGAAGCTGATTCGATGCGTGGGTCG; settings: 1 M KCl; +120 mV, aptamer cis, serotonin trans
[3] = test system: Dopamine-binding aptamer (DNA, aptamer) CGACGCCAGTTTGAAGGTTCGTTCGCAGGTGTGGAGTGACGTCG; settings: 1 M KCl; 10 mM Tris pH 7.4, +180 mV, aptamer cis, 25 µM dopamine trans

Kd [1]: 72 ± 17 µM
SMILES: Cn1c(=O)c2[nH]cnc2n(C)c1=O

Kd [2]: 9.0 ± 1.3 µM
SMILES: NCCc1c[nH]c2ccc(O)cc12

Kd [3]: 27 ± 3 µM
SMILES: NCCc1ccc(O)c(O)c1
